# Data reported in US8912227B1, “Bicyclic pyrrole derivatives useful as agonists of GPR120” (Janssen Pharmaceutica NV, priority 2014, dated 2014).
# Columns and labels:
# [1] = target: T1, long form of human GPR120 (Homo sapiens, UniProt Q5NUL3); assay: Human GPR120 DiscoveRx PathHunter β-Arrestin assay, Procedure β-arrestin A; format: cell-based; details: PathHunter CHO-K1 GPR120 β-Arrestin cell line, 3000 cells per well
# T1 construct: host or cells: PathHunter CHO-K1 GPR120 β-Arrestin Cell Line
# T1 sequence (Q5NUL3 1-377 isoform Q5NUL3-1): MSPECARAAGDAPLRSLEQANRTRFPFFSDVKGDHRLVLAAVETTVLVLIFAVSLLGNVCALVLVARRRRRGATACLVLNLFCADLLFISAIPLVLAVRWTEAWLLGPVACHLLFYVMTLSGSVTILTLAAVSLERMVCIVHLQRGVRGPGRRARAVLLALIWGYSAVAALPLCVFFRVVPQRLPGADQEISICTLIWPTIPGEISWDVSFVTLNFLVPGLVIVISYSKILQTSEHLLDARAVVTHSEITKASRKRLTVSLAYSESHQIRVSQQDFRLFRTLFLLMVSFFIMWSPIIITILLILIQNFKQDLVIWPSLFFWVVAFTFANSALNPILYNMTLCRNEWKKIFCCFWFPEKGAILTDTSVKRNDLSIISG
# T1 sequence (P32121 whole entry partner): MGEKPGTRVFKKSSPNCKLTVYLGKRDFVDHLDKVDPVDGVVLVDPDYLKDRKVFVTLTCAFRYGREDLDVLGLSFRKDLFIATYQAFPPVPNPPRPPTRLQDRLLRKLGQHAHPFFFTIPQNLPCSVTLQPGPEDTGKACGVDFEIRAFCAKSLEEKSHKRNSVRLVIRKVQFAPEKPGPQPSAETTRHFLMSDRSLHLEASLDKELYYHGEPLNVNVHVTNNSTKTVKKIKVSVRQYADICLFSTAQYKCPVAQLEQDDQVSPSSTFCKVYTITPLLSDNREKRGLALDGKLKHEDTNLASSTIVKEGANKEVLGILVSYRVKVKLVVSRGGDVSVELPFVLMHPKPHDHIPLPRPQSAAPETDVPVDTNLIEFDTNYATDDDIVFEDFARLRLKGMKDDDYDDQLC
# Text: (§1) The binding of an agonist (medium/long chain fatty acids or small molecule agonists) to the G-protein-coupled receptor GPR120 activates phospholipase C, leading to release of intracellular Ca^+2 through the generation of inositol 1,4,5-trisphosphate (InsP3 or IP3). GPR120 activation can also trigger intracellular signaling via recruitment of β-Arrestin. In the present method, agonist-induced activation of the human GPR120 receptor is monitored through the use of PathHunter CHO-K1 GPR120 β-Arrestin Cell Line engineered by DiscoveRx, as detailed below. The cell lines are designed to co-express both the ProLink/Enzyme Donor (PK)-tagged GPCR and the Enzyme […] (EA)-tagged Beta-Arrestin fusion proteins. Upon GPR120 receptor stimulation/activation, the EA-tagged β-Arrestin portion is translocated to the tagged receptor, where the two enzyme fragments are brought within close proximity. Under these conditions, these fragments can interact and form an active Beta-gal enzyme complex through Enzyme Fragment Complementation (EFC). This active Beta-gal complex can enzymatically hydrolyse the substrate to produce a detectable light signal; therefore, activation as a function of agonist concentration can be expressed as an EC50 value to determine relative compound activities. This in vitro assay therefore serves to assess compound agonist activity of the GPR120.
# In Procedure β-arrestin A, the cell used were PathHunter CHO-K1 GPR120 β-Arrestin Cell Line, expressing the long form of human GPR120 (Genbank accession number NM_181745), with 3000 cells per well.
# (§2) The selected CHO-K1 GPR120 β-Arrestin cells were cultured in Ham's F12 media supplemented with 10% fetal bovine serum (FBS), 1% Glutamine, 1×p/s, 800 μg/ml G418 and 300 μg/ml Hygromycin B (for selection). Cell stocks were maintained and grown in a sub-confluent state using standard cell culture procedures. The day before the experiment, the cells were harvested with non-enzymatic cell dissociation buffer and re-suspended in complete growth media at the desired concentration. A Corning 384-plate was then seeded with the proper number of cells in a volume of 25 μL, per well. The seeded plates were incubated overnight at 37° C.
# (§3) On the day of the experiment, the Assay Buffer containing (a) HBSS with Ca^++ and Mg^++, (b) 20 mM HEPES, and (c) 0.1% BSA stabilizer (pH 7.4) was prepared. The growth medium was gently removed from the cell plates and 20 μL of Assay Buffer added to each well. The plate was then incubated at 37° C. for 60 mins. Test compounds were serially diluted in Assay Buffer to desired concentrations (more particularly, to one or more of the following μM concentrations: 25 μM, 12.5 μM, 6.25 μM, 3.125 μM, 1.562 μM, 0.781 μM, 0.391 μM, 0.195 μM, 0.098 μM, 0.049 μM, 0.024 μM, 0.012 μM). Five μl of compound dilution was then added to each well and the plate incubated at 37° C. for 90 mins. The detection reagents were prepared according to the manufacture's instruction. Twelve μL of the detection reagents were added to each well and the plate incubated at room temperature for 60 mins.
# (§4) The plates were read on an EnVision instrument, using Protocol name: Luminescence, Plate type: 384 Costar, Measurement height: 3 mm, Measurement time: 1 s, Aperture: 384 Plate aperture. The % activity relative to the positive control was calculated using the following equation:
# (§5) The % Activity values were plotted versus the concentration of test compound and fitted to a sigmoidal dose-response curve with a Hill slope=1 (fixed value) using nonlinear regression with GraphPad Prism 5.0 to calculate the EC50 values. The Fitting Equation was: Y=Bottom+(Top−Bottom)/(1+10^((LogEC50−X)*HillSlope)), where X is the log of the concentration and Y is the response.
# [2] = target: T2, short form of the GPR120 receptor (Homo sapiens, UniProt Q5NUL3); assay: Human GPR120 DiscoveRx PathHunter β-Arrestin assay, Procedure β-arrestin B; format: cell-based; details: PathHunter CHO-K1 GPR120S β-Arrestin cell line, 5000 cells/well
# T2 construct: host or cells: PathHunter CHO-K1 GPR120S β-Arrestin Cell Line
# T2 sequence (Q5NUL3 whole entry): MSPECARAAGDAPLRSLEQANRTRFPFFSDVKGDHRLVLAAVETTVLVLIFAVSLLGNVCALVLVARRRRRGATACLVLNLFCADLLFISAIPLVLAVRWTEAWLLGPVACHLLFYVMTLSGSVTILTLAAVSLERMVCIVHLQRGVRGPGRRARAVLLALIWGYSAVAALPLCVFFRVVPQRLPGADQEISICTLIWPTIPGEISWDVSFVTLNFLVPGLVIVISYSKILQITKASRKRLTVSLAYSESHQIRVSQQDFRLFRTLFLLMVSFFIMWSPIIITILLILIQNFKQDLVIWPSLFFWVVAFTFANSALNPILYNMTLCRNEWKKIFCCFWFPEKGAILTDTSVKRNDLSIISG
# T2 sequence (P32121 whole entry partner): as the sequence (P32121 whole entry partner) above
# Text: as §1
# In Procedure β-arrestin B the cells used were PathHunter CHO-K1 GPR120S β-Arrestin Cell Line, expressing the short form of the GPR120 receptor (Accession #NM_181745), with 5000 cells/well.
# as §2, §3, §4, §5
SMILES,EC50 [1] [µM],EC50 [2] [µM]
"Cc1ccc(-n2ccc(C(F)(F)F)c2COc2c(F)cc(CCC(=O)O)cc2F)cc1 [Compound 39, 3-(3,5-difluoro-4-[[1-(4-methylphenyl)-3-(trifluoromethyl)-1H-pyrrol-2-yl]methoxy]phenyl)propanoic acid]",0.264,0.219
"Cc1c(CCC(=O)O)ccc(OCc2cccn2-c2ccc(Cl)cc2)c1C [Compound 1, 3-(4-{[1-(4-Chlorophenyl)-1H-pyrrol-2-yl]methoxy}-2,3-dimethylphenyl)propanoic acid]",1.03,
"OCCCc1ccc(OCc2c(C(F)(F)F)ccn2-c2ccc(Cl)cc2)c(F)c1F [Compound 29, 3-(4-{[1-(4-Chlorophenyl)-3-(trifluoromethyl)-1H-pyrrol-2-yl]methoxy}-2,3-difluorophenyl)propan-1-ol]",0.053,0.063
"CCc1ccc(-n2ccc(C(F)(F)F)c2COc2ccc(CCC(=O)O)c(F)c2F)cc1 [Compound 34, 3-(4-[[1-(4-ethylphenyl)-3-(trifluoromethyl)-1H-pyrrol-2-yl]methoxy]-2,3-difluorophenyl)propanoic acid]",0.171,0.179
